The values that follow are results of earlier work, collected in article PMC8198792, “Prediction of Anticancer Peptides with High Efficacy and Low Toxicity by Hybrid Model Based on 3D Structure of Peptides” (International Journal of Molecular Sciences, 2021).

Like-named read-outs stand apart in the source and are kept apart here.

For one data set, the system named is cancer cell lines. The arrangement: method as in 6 sources, ref CancerPPD [45] and SATPdb ||| ref CancerPPD/SATPdb ||| ref CancerPPD, SATPdb, Swissprot (PDB) ||| ref CancerPPD/SATPdb/Swissprot(PDB) ||| ref CancerPPD / SATPdb ||| ... The note with it: cited from earlier work. The source says:
Supplement ijms-22-05630-s001.zip/ACPs(seguence).xlsx, sheet "D1" | column: Activity || Supplement ijms-22-05630-s001.zip/ACPs(seguence).xlsx, sheet "D2" | column: Activity || Supplement ijms-22-05630-s001.zip/ACPs(seguence).xlsx, sheet "D3" | column: Activity || (+ 2 further places)

Data set [1] has as its system many types of cells, including non-cancer cells. The note with it: toxic peptides dataset TD2; class label 1 (toxic, positive set) or 0 (non-toxic AMP, negative set); ref SATPdb; cited from earlier work.
Setting [2] is: ACPs dataset D3 (sheet "D3"), label 1 = ACP, 0 = non-ACP, ref CancerPPD/SATPdb.
Where [3] appears, read: ACPs dataset D4 (sheet "D4"), label 1 = ACP, 0 = non-ACP, ref CancerPPD / SATPdb.
Where [4] appears, read: ACPs dataset D5, sheet "D5", label 1 = ACP, 0 = non-ACP, ref CancerPPD [45] and SATPdb.
[5] abbreviates: ACPs dataset D3 (supplement sheet "D3"), 1 = ACP, 0 = non-ACP, ref CancerPPD [45] and SATPdb.

As to “RWKIFKKIEKVGRNVRDGIIKAGPAVAVVGQAATVVK [satpdb12319]”, the Activity (with cancer cell lines (setting [2]); in the data set on cancer cell lines (setting [3]); in the data set on cancer cell lines (setting [4]); in data set [1]) was 0 in each case.

Turning to GLLDALSGILGL [satpdb12939], the Activity (in the data set with cancer cell lines (setting [2]); in the data set with cancer cell lines (setting [3]); with cancer cell lines (setting [4]); in data set [1]) was 0 throughout.

For the sequence FLPIAGKLLSGLSGLL [satpdb12964], the Activity (in the data set on cancer cell lines (setting [2]); in the data set with cancer cell lines (setting [3]); with cancer cell lines (setting [4]); in data set [1]) was 0 each time.

Take ILPLVGNLLNDLL [satpdb10023]: the Activity (with cancer cell lines (setting [5]); in the data set on cancer cell lines (setting [3]); with cancer cell lines (setting [4]); in data set [1]) was 0 throughout.

Turning to “ALALLOHALHOLALLAOHLAHOLALA [satpdb11016]”, the Activity (in the data set on cancer cell lines (setting [5]); in data set [1]) was 0 each time.

With FLWGLIPGAISAVTSLIKK [satpdb12159], the Activity (in the data set with cancer cell lines (setting [2]); in the data set on cancer cell lines (setting [3]); with cancer cell lines (setting [4]); in data set [1]) was 0 throughout.

On to GFLGSLLKTGLKVGSNLL [satpdb10293], for which the Activity with cancer cell lines (ACPs dataset D1, 1 = ACP (positive), 0 = non-ACP (negative), label taken from databases, ref CancerPPD [45] and SATPdb) is given as 0; in the data set on cancer cell lines (ACPs dataset D4 (sheet "D4"), label 1 = ACP (CancerPPD ID), 0 = non-ACP (non-anticancer AMP, SATPdb ID), ref CancerPPD [45] and SATPdb), 0; in data set [1], 1.

Regarding “GLWSTIKQKGKEAAIAAAKAAGQAVLNSASEAL [satpdb11971]”, the Activity (in the data set with cancer cell lines (setting [2]); in the data set on cancer cell lines (setting [3]); in the data set with cancer cell lines (setting [4]); in data set [1]) was 0 in each case.

As for GVVTDLLKTAGKLLGNLFGSLSG [satpdb14110], the Activity in the data set with cancer cell lines (setting [2]) is 0; in the data set on cancer cell lines (setting [3]), 0; with cancer cell lines (setting [4]), 0; in data set [1] it was 1.

As for FLPLLVGAISSILPKIF [satpdb12883], the Activity in the data set on cancer cell lines (setting [2]) is on record as 0; in the data set on cancer cell lines (setting [3]) it was 0; in the data set with cancer cell lines (setting [4]), 0; in data set [1] it was 1.

Regarding VOLFPWFNQY [satpdb12517], the Activity (in the data set on cancer cell lines (setting [2]); in the data set with cancer cell lines (setting [3]); in the data set on cancer cell lines (setting [4]); in data set [1]) was 0 throughout.

Regarding FLPFLKSILGKIL [satpdb13847], the Activity (with cancer cell lines (setting [2]); in the data set on cancer cell lines (setting [3]); with cancer cell lines (setting [4]); in data set [1]) was 0 each time.

For the sequence GFGSLLGKALRLGANVL [satpdb12093], the Activity (in the data set on cancer cell lines (setting [2]); with cancer cell lines (setting [3]); in the data set with cancer cell lines (setting [4]); in data set [1]) was 0 each time.

With HFLGTLVNLAKKIL [satpdb13929], the Activity with cancer cell lines (setting [2]) is 0; in the data set on cancer cell lines (setting [3]), 0; with cancer cell lines (setting [4]), 0; in data set [1], 1.

On to “ACNFQSCWATCQAQHSIYFRRAFCDRSQCKCVFVRG [satpdb14312]”, for which the Activity (in the data set with cancer cell lines (setting [2]); in the data set on cancer cell lines (setting [3]); in the data set with cancer cell lines (setting [4]); in data set [1]) was 0 each time.

On to GVLSAFKNALPGIMKIIV [satpdb14593], for which the Activity (in the data set with cancer cell lines (setting [2]); in the data set on cancer cell lines (setting [3]); with cancer cell lines (setting [4]); in data set [1]) was 0 throughout.

For the sequence GLFSVLGSVAKHLLPHVAPIIAEKL [satpdb13391], the Activity (in the data set with cancer cell lines (setting [2]); in the data set on cancer cell lines (setting [3]); with cancer cell lines (setting [4]); in data set [1]) was 0 throughout.

With “GLWSNIKTAGKEAAKAALKAAGKAALGAVTDAV [satpdb12078]”, the Activity (in the data set on cancer cell lines (setting [2]); with cancer cell lines (setting [3]); in the data set on cancer cell lines (setting [4]); in data set [1]) was 0 each time.

GLFGILGSVAKHVLPHVIPVVAEHL [satpdb11946]: the Activity (with cancer cell lines (setting [2]); with cancer cell lines (setting [3]); with cancer cell lines (setting [4]); in data set [1]) was 0 in each case.

Consider GLLSGILNTAGGLLGNLIGSLSN [satpdb13955], for which the Activity (in the data set with cancer cell lines (setting [2]); in the data set on cancer cell lines (setting [3]); in the data set with cancer cell lines (setting [4]); in data set [1]) was 0 throughout.

LIGPVLGLVGSALGGLLKKI [satpdb10453]: the Activity in the data set on cancer cell lines (setting [5]) is given as 0; in the data set with cancer cell lines (setting [3]), 0; with cancer cell lines (setting [4]), 0; in data set [1], 1.

Turning to ILGPVLGLVGNALGGLIKKL [satpdb12428], the Activity in the data set on cancer cell lines (setting [2]) is on record as 0; in the data set on cancer cell lines (setting [3]), 0; with cancer cell lines (setting [4]), 0; in data set [1], 1.

As for FLSLIPHAINAVSAIAKHS [satpdb10076], the Activity (with cancer cell lines (setting [5]); in the data set on cancer cell lines (setting [3]); with cancer cell lines (setting [4]); in data set [1]) was 0 throughout.

Take GFRDVLKGAAKAFVKTVAGHIAN [satpdb12067]: the Activity (in the data set with cancer cell lines (setting [2]); in the data set with cancer cell lines (setting [3]); in the data set on cancer cell lines (setting [4]); in data set [1]) was 0 each time.

In the case of ILPILGNLLNGLL [satpdb12015], the Activity is 0 in the data set with cancer cell lines (setting [2]), 0 in the data set with cancer cell lines (setting [3]), 0 with cancer cell lines (setting [4]) and 1 in data set [1].

For the sequence “KCNTATCATQRLANFLVHSSNNFGAILSSTNVGSNTY [satpdb11357]”, the Activity (in the data set on cancer cell lines (setting [5]); with cancer cell lines (setting [3]); in the data set on cancer cell lines (setting [4]); in data set [1]) was 0 in each case.

For KLGFENFLVKALKTVMHVPTSPLL [satpdb10107], the Activity with cancer cell lines (setting [5]) was 0; with cancer cell lines (setting [3]), 0; with cancer cell lines (setting [4]), 0; in data set [1], 1.

For the sequence FIGAILPAIAGLVGGLINR [satpdb12061], the Activity is listed as 0 in the data set with cancer cell lines (setting [2]), 0 in the data set with cancer cell lines (setting [3]), 0 with cancer cell lines (setting [4]) and 1 in data set [1].

Regarding ILPFLAGLFSKIL [satpdb10916], the Activity (with cancer cell lines (setting [5]); with cancer cell lines (setting [3]); with cancer cell lines (setting [4]); in data set [1]) was 0 each time.

As for VOLFPVOLFP [satpdb12868], the Activity (in the data set on cancer cell lines (setting [2]); with cancer cell lines (setting [3]); in the data set with cancer cell lines (setting [4]); in data set [1]) was 0 each time.

On to GWRLLLKKAEVKTVGKLALKHYL [satpdb14772], for which the Activity (in the data set with cancer cell lines (setting [2]); with cancer cell lines (setting [3]); in the data set on cancer cell lines (setting [4]); in data set [1]) was 0 each time.

Take LRPAILVRIK [satpdb13588]: the Activity (with cancer cell lines (setting [2]); in the data set on cancer cell lines (setting [3]); with cancer cell lines (setting [4]); in data set [1]) was 0 throughout.

FLGALWNVAKSVF [satpdb13946]: the Activity (in the data set on cancer cell lines (setting [2]); in the data set on cancer cell lines (setting [3]); in the data set on cancer cell lines (setting [4]); in data set [1]) was 0 throughout.

On to FLGLLPSIVSGAVSLVKKL [satpdb10320], for which the Activity (in the data set with cancer cell lines (setting [5]); in the data set with cancer cell lines (setting [3]); with cancer cell lines (setting [4]); in data set [1]) was 0 in each case.

Take NLLGSLLKTGLKVGSNLL [satpdb11204]: the Activity with cancer cell lines (setting [5]) is reported as 0; in the data set with cancer cell lines (setting [3]), 0; in the data set with cancer cell lines (setting [4]), 0; in data set [1] it was 1.

With FFPIVGKLLFGLSGLL [satpdb12681], the Activity (in the data set with cancer cell lines (setting [2]); with cancer cell lines (setting [3]); with cancer cell lines (setting [4]); in data set [1]) was 0 each time.

In the case of FLPILINLIHKGLL [satpdb14138], the Activity (in the data set with cancer cell lines (setting [2]); in the data set on cancer cell lines (setting [3]); with cancer cell lines (setting [4]); in data set [1]) was 0 in each case.

For “GIGGALLSVGKLALKGLANVLADKFAN [satpdb14012]”, the Activity is given as 0 in the data set on cancer cell lines (setting [2]), 0 in the data set with cancer cell lines (setting [3]), 0 in the data set with cancer cell lines (setting [4]) and 1 in data set [1].

AVLDILKDVGKGLLSHFMEKV [satpdb13844]: the Activity (in the data set on cancer cell lines (setting [2]); in the data set with cancer cell lines (setting [3]); in the data set on cancer cell lines (setting [4]); in data set [1]) was 0 throughout.

Turning to FLSLIPHAINAVSALANHG [satpdb14661], the Activity (in the data set with cancer cell lines (setting [2]); in the data set with cancer cell lines (setting [3]); in the data set on cancer cell lines (setting [4]); in data set [1]) was 0 in each case.

Consider GLLGTLGNLLNGLGL [satpdb12279], for which the Activity (in the data set with cancer cell lines (setting [2]); in the data set on cancer cell lines (setting [3]); in the data set with cancer cell lines (setting [4]); in data set [1]) was 0 each time.

As for “VGKVLKQLKKVSAVAKVAMKKGAALLK [satpdb11069]”, the Activity with cancer cell lines (setting [5]) was 0; with cancer cell lines (setting [3]) it was 0; in the data set on cancer cell lines (setting [4]) it was 0; in data set [1] it was 1.

Turning to AILTTLANWARKFL [satpdb12672], the Activity (in the data set on cancer cell lines (setting [2]); in the data set with cancer cell lines (setting [3]); in the data set with cancer cell lines (setting [4]); in data set [1]) was 0 throughout.
